Reference: the NIST ThermoML archive (doi:10.1021/acs.jced.8b00595)
Numbers after ± are expanded uncertainties.

Conditions: 101.3 kPa, Liquid; for viscosity: Concentric cylinders viscometry; for mass density: Vibrating tube method

COC(C)(C)C [2-methoxy-2-methylpropane]
Conditions	mass density [kg/m3]	viscosity [mPa·s]
273.15 K	761.3 ± 2.3	0.495 ± 0.025
288.15 K	745.9 ± 2.3	0.421 ± 0.022
298.15 K	735 ± 2.2	0.381 ± 0.02
308.15 K	724.6 ± 2.2	0.328 ± 0.017
